In ChEMBL document CHEMBL1201862, “PubChem BioAssay data set” (2004):
Calls of active or inactive are those of the source.

Legend:
[1] = test system: Streptococcus sp. 'group A'; experiment: growth inhibition of control SK(-) GAS strain, dose response, counter-screen for streptokinase expression inhibitor project, luminescence, kanamycin, BacTiterGlo, confirmation (AID 1900); assay type: functional, organism-based
cells [2] = assay type: functional, cell-based
cells [3] = assay type: functional, cell-based; remark: listed apart in the source
Streptococcus = experiment: Group A Streptococcus viability loss, dose response, counter-screen for streptokinase expression inhibitor project, luminescence, BacTiterGlo (AID 1915); assay type: functional, organism-based;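 note: potency for reduction of bacterial viability or growth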
INS1 = experiment: beta cell apoptosis inhibitors, cytokine rescue, dose response, luminescence, retest (AID 449756); assay type: functional, cell-based; settings: Rattus norvegicus;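 note: cell death triggered by IL-1 beta plus TNF-alpha plus IFN-gamma mixture; protective hits raise ATP signal compared with cytokine alone wells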
[4] = human group III sPLA2 inhibitors, dose response, biochemical, QFRET, IC50 (AID 743457);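 note: green fluorescence rise as the enzyme cleaves BODIPY PC-A2 in liposomes; potency for inhibition of the enzyme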
Paired box protein Pax-8 = Paired box protein Pax-8 (Homo sapiens, UniProt Q06710); experiment: inhibitors of PAX8-driven TPO luciferase reporter, dose response, RMG-I cells, cherry-pick (AID 687027); assay type: functional, cell-based;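 note: luciferase reporter driven by Pax8 target thyroperoxidase promoter measured by SteadyGlo luminescence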
Chain of Paired box protein Pax-8 (Q06710 whole entry): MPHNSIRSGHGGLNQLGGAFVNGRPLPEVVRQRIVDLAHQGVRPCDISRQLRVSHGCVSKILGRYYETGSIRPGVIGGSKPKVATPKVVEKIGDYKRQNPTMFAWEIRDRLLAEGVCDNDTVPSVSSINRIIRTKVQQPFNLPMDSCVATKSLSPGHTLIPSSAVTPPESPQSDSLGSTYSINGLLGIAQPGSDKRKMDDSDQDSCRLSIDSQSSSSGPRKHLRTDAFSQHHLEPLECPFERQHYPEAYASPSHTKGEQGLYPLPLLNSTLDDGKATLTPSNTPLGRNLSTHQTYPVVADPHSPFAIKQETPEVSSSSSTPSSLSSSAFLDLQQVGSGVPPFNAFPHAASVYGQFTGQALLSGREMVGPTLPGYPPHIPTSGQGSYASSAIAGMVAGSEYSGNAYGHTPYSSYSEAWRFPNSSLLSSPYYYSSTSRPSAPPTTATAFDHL

[5] = cytotoxicity in COV362 ovarian cancer cells, dose response, cytotoxicity control for PAX8 inhibitor project, cell-based, plate reader, dry powder, SA12 (AID 743144); assay type: functional
[6] = cytotoxicity in OVCAR4 cells, dose response, cytotoxicity control for PAX8 inhibitor project, cell-based, plate reader, dry powder, SA11 (AID 743150); assay type: functional; settings: OVCAR-4
[7] = cytotoxicity in COV434 cells, dose response, cytotoxicity control for PAX8 inhibitor project, cell-based, plate reader, dry powder, SA7 (AID 743145); assay type: functional
[8] = cytotoxicity in OV-90 ovarian cancer cells, dose response, PAX8 inhibitor project, cell-based, plate reader, dry powder, SA8 (AID 743149); assay type: functional
[9] = molecular target: Luciferin 4-monooxygenase (Photinus pyralis, UniProt P08659); experiment: firefly luciferase enzyme inhibitors, dose response, biochemical, luminescence (AID 1891)
Chain of Luciferin 4-monooxygenase (P08659 whole entry): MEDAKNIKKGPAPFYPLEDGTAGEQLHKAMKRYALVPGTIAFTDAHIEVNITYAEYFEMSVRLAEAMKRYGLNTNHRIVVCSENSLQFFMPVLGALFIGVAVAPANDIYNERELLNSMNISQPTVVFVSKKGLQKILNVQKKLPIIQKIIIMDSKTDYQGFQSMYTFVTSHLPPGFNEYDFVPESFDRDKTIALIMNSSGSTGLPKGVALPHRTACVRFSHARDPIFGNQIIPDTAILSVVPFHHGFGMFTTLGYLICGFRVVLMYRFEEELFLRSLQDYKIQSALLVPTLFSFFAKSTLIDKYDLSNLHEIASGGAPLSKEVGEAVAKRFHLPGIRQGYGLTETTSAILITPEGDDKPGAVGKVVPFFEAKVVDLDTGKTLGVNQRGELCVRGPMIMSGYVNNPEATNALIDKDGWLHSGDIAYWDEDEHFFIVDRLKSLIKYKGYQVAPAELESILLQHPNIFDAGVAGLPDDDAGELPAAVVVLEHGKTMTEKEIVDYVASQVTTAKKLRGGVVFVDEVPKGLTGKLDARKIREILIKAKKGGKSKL

[10] = Luminescence Cell-Based Dose Confirmation HTS to Identify Inhibitors of Platelet Dense Granule Release. [Related pubchem assays: 1663 (Primary HTS), 1678 (Summary of Project)]; assay type: functional
Caspase-3 = molecular target: T1, Caspase-3 (Homo sapiens, UniProt P42574); assay type: functional;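 note: Dose-response selectivity test against caspase-3 for candidate inhibitors of sentrin-specific proteases (SENPs)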
T1 sequence (P42574 whole entry): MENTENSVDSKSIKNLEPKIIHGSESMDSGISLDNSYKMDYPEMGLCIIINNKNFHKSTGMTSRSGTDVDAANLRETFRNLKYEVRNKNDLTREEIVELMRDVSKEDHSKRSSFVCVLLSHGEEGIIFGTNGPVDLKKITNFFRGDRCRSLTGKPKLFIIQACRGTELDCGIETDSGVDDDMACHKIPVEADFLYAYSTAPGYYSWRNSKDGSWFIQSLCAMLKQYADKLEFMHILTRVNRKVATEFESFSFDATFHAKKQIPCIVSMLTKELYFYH

[11] = molecular target: T2, Sentrin-specific protease 7 (Homo sapiens, UniProt Q9BQF6); assay type: functional;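 note: Luminescence-based dose-response confirmation of ultra-high-throughput screening hits, measuring inhibition of SENP7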
T2 sequence (Q9BQF6 whole entry): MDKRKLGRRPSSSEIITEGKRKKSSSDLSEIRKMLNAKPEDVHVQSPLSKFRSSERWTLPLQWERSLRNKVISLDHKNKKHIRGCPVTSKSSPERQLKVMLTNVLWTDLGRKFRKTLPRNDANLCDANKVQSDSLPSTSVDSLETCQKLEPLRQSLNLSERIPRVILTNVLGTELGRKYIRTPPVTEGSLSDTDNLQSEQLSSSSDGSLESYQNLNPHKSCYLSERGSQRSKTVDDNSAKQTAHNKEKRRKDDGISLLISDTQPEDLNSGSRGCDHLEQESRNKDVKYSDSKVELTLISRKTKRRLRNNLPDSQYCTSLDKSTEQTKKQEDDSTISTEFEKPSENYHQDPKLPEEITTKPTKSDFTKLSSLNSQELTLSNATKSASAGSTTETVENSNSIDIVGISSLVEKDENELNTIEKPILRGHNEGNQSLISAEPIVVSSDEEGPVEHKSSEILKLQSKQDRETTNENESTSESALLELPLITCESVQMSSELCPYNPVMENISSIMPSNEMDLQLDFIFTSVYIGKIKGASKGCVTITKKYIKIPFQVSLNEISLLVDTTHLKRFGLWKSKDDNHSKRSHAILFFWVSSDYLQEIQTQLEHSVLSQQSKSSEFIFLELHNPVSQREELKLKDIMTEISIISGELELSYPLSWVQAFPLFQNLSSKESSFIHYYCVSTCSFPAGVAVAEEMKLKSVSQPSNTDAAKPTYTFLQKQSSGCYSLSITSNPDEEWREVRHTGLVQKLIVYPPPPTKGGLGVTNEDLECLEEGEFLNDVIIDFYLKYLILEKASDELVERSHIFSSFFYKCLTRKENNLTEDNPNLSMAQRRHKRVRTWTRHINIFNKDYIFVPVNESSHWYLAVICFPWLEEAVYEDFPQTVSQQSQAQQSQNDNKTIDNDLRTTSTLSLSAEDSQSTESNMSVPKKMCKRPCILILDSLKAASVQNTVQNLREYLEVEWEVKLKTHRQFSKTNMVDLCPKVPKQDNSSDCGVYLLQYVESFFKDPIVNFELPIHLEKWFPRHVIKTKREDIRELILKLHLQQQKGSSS

[12] = molecular target: T3, Sentrin-specific protease 6 (Homo sapiens, UniProt Q9GZR1); assay type: functional;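 note: Luminescence-based dose-response confirmatory assay of SENP6 inhibition, following up an ultra-high-throughput screen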
T3 sequence (Q9GZR1 whole entry): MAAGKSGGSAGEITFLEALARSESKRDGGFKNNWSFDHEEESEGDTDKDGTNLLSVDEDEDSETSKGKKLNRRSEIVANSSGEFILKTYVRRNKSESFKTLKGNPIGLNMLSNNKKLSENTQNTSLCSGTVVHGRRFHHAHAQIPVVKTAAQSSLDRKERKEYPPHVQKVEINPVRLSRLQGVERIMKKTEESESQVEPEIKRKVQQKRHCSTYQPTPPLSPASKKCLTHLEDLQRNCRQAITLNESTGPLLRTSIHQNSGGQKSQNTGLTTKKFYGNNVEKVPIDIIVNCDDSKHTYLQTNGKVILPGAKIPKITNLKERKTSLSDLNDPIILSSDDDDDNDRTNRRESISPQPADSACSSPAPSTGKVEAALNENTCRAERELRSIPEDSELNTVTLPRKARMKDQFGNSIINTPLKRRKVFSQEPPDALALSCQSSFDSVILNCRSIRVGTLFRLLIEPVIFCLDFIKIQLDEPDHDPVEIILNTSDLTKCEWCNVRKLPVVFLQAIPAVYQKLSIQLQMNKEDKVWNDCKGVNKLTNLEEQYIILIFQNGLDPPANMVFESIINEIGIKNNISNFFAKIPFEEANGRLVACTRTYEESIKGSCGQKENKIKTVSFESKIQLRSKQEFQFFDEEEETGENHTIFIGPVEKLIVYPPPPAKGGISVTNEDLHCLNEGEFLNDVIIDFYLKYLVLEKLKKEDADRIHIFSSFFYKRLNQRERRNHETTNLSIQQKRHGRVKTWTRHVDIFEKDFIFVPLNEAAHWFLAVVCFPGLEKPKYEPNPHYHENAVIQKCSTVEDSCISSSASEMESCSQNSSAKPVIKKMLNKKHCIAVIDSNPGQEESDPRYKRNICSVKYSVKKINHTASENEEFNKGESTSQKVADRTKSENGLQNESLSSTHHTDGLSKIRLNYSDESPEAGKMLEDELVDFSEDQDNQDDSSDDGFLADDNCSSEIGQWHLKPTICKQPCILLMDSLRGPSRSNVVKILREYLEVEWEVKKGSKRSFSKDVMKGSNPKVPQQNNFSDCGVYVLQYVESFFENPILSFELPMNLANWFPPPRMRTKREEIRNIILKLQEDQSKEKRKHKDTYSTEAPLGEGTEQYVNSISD

[13] = molecular target: T4, Sentrin-specific protease 8 (Homo sapiens, UniProt Q96LD8); assay type: functional;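 note: luminescence read-out of SENP8 inhibition, dose-response confirmation following an ultra-high-throughput screen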
T4 sequence (Q96LD8 whole entry): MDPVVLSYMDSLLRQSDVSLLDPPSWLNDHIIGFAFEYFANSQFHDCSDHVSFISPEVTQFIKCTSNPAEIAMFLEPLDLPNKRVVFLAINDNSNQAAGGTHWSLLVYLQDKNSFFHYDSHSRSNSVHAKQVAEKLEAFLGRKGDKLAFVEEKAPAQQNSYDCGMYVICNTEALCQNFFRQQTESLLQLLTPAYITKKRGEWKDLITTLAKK

[14] = molecular target: T5, Probable nicotinate-nucleotide adenylyltransferase (Staphylococcus aureus (strain N315), UniProt P65502); assay type: functional, Staphylococcus aureus subsp. aureus N315;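 for IC50 Mean: confirmatory dose-response retesting of NadD inhibitor hits first found in an ultra-high-throughput screen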
T5 sequence (P65502 whole entry): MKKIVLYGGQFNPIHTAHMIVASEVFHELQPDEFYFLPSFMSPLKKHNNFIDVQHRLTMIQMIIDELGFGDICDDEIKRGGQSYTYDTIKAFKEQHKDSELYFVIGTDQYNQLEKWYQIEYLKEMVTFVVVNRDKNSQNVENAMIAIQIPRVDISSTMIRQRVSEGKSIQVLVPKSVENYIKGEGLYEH

[15] = molecular target: T5, Probable nicotinate-nucleotide adenylyltransferase; assay type: functional, Staphylococcus aureus subsp. aureus N315; settings: read-out: IC50_Mean
[16] = HEK293T cytotoxicity, dose response, cytotoxicity control for miR-122 modulator project, cell-based, inhibitor set, cherry-pick, set 2 (AID 720697); assay type: functional
[17] = inhibitors of CMV-promoter luciferase reporter, dose response, counter-screen for Pax8 inhibitor project, cell-based, HEK293, luminescence, dry powder (AID 743020); assay type: functional
[18] = A549 cell cytotoxicity, dose response, cytotoxicity control, plate reader, cherry-pick, antagonist series (AID 743412); assay type: functional, cell-based
[19] = HepG2 cell cytotoxicity, dose response, cytotoxicity control, plate reader, cherry-pick, antagonist series (AID 743416); assay type: functional, cell-based
[20] = LGR2 antagonists, dose response, cell-based, HEK293, CRE-luciferase reporter, cherry pick, set 2 (AID 743343); assay type: functional;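 note: transfected cells were stimulated with diluted bursicon conditioned medium after compound addition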
[21] = MC4R antagonists, dose response, counter-screen for LGR2 antagonist project, cell-based, plate reader, cherry pick (AID 743444); assay type: functional;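 note: transfected HEK 293 cells stimulated with alpha-MSH peptide; potency of inhibitors of the alpha-MSH evoked signal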
[22] = HEK293 cell cytotoxicity, dose response, cytotoxicity control, plate reader, cherry-picked samples (AID 743446); assay type: functional, cell-based
[23] = molecular target: Endoplasmic reticulum aminopeptidase 1 (Homo sapiens, UniProt Q9NZ08); experiment: ERAP1 aminopeptidase inhibitors, dose response, biochemical, cherry-pick, set 2, plate reader (AID 743314)
Chain of Endoplasmic reticulum aminopeptidase 1 (Q9NZ08 whole entry): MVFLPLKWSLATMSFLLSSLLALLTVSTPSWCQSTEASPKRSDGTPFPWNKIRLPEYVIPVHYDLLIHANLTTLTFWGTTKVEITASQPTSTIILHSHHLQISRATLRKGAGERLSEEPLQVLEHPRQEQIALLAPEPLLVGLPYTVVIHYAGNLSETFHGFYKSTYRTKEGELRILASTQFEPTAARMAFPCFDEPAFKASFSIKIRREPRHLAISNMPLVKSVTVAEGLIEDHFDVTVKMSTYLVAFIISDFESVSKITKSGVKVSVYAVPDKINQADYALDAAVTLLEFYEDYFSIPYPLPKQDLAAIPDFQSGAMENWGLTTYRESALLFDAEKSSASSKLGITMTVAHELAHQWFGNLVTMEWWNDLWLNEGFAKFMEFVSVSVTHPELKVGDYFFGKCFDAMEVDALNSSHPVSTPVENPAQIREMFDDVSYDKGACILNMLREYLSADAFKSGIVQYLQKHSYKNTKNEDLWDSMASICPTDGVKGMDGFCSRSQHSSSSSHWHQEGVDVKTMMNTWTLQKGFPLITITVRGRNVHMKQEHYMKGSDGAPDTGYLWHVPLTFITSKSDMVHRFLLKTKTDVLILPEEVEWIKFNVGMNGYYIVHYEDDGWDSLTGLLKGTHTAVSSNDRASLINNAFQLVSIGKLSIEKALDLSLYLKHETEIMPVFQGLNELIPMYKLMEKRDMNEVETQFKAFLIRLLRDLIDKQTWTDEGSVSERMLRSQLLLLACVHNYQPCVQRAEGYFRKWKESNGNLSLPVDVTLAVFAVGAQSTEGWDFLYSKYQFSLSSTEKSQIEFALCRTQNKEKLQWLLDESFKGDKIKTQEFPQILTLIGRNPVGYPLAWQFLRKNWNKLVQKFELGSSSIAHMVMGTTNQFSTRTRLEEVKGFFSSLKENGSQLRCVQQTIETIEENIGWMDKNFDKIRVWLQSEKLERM

[24] = IOSE-T80 ovarian epithelial cell cytotoxicity, dose response, cytotoxicity control for PAX8 inhibitor project, plate reader, dry powder samples (AID 743045); assay type: functional, cell-based
[25] = A2780 ovarian cancer cell cytotoxicity, dose response, cytotoxicity control, plate reader, dry powder samples (AID 743046); assay type: functional, cell-based
[26] = NIH:OVCAR-3 ovarian cancer cell cytotoxicity, dose response, PAX8 inhibitor project, plate reader, dry powder samples (AID 743044); assay type: functional, cell-based
[27] = IGROV1 ovarian cancer cell cytotoxicity, dose response, PAX8 inhibitor project, plate reader, dry powder samples (AID 743043); assay type: functional, cell-based; settings: IGROV-1
[28] = non-specific cell cytotoxicity, dose response, cytotoxicity control for PAX8 inhibitor project, plate reader, dry powder samples (AID 743021); assay type: functional, cell-based
[29] = cytotoxicity in OVCAR8 ovarian cancer cells, dose response, PAX8 project, cell-based, plate reader, dry powder samples (AID 743197); assay type: functional; settings: OVCAR-8
[30] = molecular target: Tyrosyl-DNA phosphodiesterase 2 (Homo sapiens, UniProt O95551); experiment: human TDP2 enzyme inhibitors, dose response, biochemical, epi absorbance, IC50 (AID 743297)
Chain of Tyrosyl-DNA phosphodiesterase 2 (O95551 whole entry): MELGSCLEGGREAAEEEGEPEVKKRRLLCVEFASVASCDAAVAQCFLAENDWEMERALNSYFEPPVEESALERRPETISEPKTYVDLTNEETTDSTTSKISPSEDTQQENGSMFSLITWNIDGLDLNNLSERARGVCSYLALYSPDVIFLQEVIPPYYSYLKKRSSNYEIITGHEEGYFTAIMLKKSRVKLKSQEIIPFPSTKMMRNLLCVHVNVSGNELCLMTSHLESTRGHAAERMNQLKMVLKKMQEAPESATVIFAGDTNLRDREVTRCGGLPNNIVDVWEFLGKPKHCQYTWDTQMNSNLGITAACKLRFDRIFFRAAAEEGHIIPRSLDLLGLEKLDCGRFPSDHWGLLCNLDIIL

Kallikrein-7 = Kallikrein-7 (Homo sapiens, UniProt P49862); experiment: Fluorescence Intensity-based biochemical primary high throughput dose response assay to identify activators of kallikrein-7 (K7) zymogen.
Chain of Kallikrein-7 (P49862 whole entry): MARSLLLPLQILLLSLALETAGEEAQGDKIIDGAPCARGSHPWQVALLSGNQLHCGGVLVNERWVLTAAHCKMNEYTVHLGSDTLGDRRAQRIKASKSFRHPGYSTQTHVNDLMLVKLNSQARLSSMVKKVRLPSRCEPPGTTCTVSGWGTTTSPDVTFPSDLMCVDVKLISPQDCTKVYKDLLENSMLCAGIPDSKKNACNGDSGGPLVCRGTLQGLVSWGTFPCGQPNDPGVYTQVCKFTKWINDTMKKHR

Cc1ccn2c(Nc3ccccc3C)c(-c3ccccn3)nc2c1
EC50 [1]: 2.75 µM (active) | EC50 (cells [2]): 146 µM (active) | EC50 (cells [3]): > 350 µM (not active) | EC50 (Streptococcus): 6.24 µM (active) | AC50 (INS1): 5.32 µM (active) | IC50 [4]: 67.9 µM (inactive)

CN1CC(=O)N2C(c3ccc(Cl)cc3)c3[nH]c4ccccc4c3C[C@H]2C1=O (stereo not given in full)
AC50 (Paired box protein Pax-8): 10.3 µM (active) | AC50 [5]: 9.73 µM (active) | AC50 [6]: 10.3 µM (active) | AC50 [7]: 21.4 µM (active) | AC50 [8]: > 100 µM (inactive)

COc1cccc(OCc2cc(/C=N/Nc3ccc(C(=O)O)cc3)ccc2OC)c1
EC50 [9]: 4.64 µM (active) | EC50 [10]: 84.7 µM (active) | IC50 (Caspase-3): 22.4 µM (active) | IC50 [11]: 8.85 µM (active) | IC50 [12]: 6.91 µM (active) | IC50 [13]: 15.7 µM (active) | IC50 [14]: 7.37 µM (active) | IC50 [15]: 25.5 µM (active) | AC50 [16]: 7.48 µM (active)

Cc1cccc(N=C(S)NNC(=O)c2ccc(O)cc2O)c1C
IC50 [4]: > 122 µM (inactive)

O=C(C[C@H]1C[C@@H]2c3cc(NS(=O)(=O)c4ccc(F)cc4)ccc3O[C@@H]2[C@@H](CO)O1)NCc1ccc(Oc2ccccc2)cc1
AC50 (Paired box protein Pax-8): 8.32 µM (active) | AC50 [17]: 40.6 µM (active) | AC50 [18]: 19.3 µM (active) | AC50 [19]: 20.9 µM (active) | AC50 [20]: 26 µM (active) | AC50 [21]: 25.6 µM (active) | AC50 [22]: 22.3 µM (active)

CCC(=O)N(C)C[C@H]1Oc2ncc(C#Cc3ccncc3)cc2C(=O)N([C@H](C)CO)C[C@H]1C
AC50 [23]: 2.92 µM (active)

Cc1cc(=O)oc2c(CN3CCCC3)c(O)c(Cl)cc12
AC50 [23]: 5.76 µM (active)

C[C@@H]1CN([C@H](C)CO)C(=O)c2cc(NS(=O)(=O)c3ccc(Cl)cc3)ccc2O[C@@H](C)CCCCO[C@H]1CN(C)Cc1ccc(C(F)(F)F)cc1
AC50 (Paired box protein Pax-8): 6.62 µM (active) | AC50 [24]: 20.2 µM (active) | AC50 [25]: 10.8 µM (active) | AC50 [17]: 31.8 µM (active) | AC50 [26]: 10.6 µM (active) | AC50 [27]: 21.3 µM (active) | AC50 [28]: 3.68 µM (active) | AC50 [29]: 21.6 µM (active)

Nc1c2c(O)nc(O)cc2nn1-c1ccccc1
IC50 [30]: 79.9 µM (inactive)

COc1cc2ccccc2cc1C(=O)OCC(=O)N1CCOCC1
EC50 (Kallikrein-7): > 69.5 µM (inactive)
